This note sets out measurements from patent US10807968B2, “Substituted 2-(het)arylimidazolylcarboxyamides as pesticides” (Bayer CropScience Aktiengesellschaft, priority 2016, dated 2020).

Like-named read-outs stand apart in the source and are kept apart here.

A short description of data set [1]: log P determination by HPLC on reversed-phase (C18) columns, OECD Guideline 117. It counts as physicochemical. As to conditions: for chromatographic logP: reversed-phase (C18) HPLC column. How it is done: The log P values were determined in accordance with OECD Guideline 117 (EC Directive 92/69/EEC) by HPLC (high-performance liquid chromatography) using reversed-phase (RP) columns (C18), by the following methods:
[a] The LC-MS determination in the acidic range was carried out at pH 2.7 with 0.1% aqueous formic acid and acetonitrile (contains 0.1% formic acid) as mobile phases; linear gradient from 10% acetonitrile to 95% acetonitrile.
[b] LC-MS determination in the neutral range was carried out at pH 7.8 with 0.001 molar aqueous ammonium hydrogencarbonate solution and acetonitrile as mobile phases; linear gradient from 10% acetonitrile to 95% acetonitrile.

Data set [2] deals with Myzus persicae. The data set is described as follows: Myzus persicae - spray test (Chinese cabbage leaf discs). It counts as in vivo. The settings on record: 500 g/ha, after 6 days; for pest or weed control at 500 g/ha: Myzus persicae, foliar, 144 h, read-out: efficacy in % (aphids killed). As to the method:
Myzus persicae—Spray Test
Solvent: 78 parts by weight of acetone • • 1.5 parts by weight of dimethylformamide
Emulsifier: alkylaryl polyglycol ether
To produce a suitable preparation of active compound, 1 part by weight of active compound is dissolved using the specified parts by weight of solvent and made up with water containing an emulsi fier concentration of 1000 ppm until the desired concentration is attained. To produce further test concentrations, the formulation is diluted with emulsifier-containing water.
Discs of Chinese cabbage leaves (Brassica pekinensis) infested by all stages of the green peach aphid (Myzus persicae) are sprayed with an active compound formulation of the desired concentration.
After 6 days, the efficacy in % is determined. 100% means that all the aphids have been killed; 0% means that no aphids have been killed.

Data set [3] deals with Myzus persicae. As to the kind of experiment: Myzus persicae - oral test. The settings on record: after 5 days; for efficacy in % (aphids killed): 20 ppm; for pest or weed control at 20 ppm: Myzus persicae, 120 h, read-out: efficacy in % (aphids killed). The data set is classed as in vivo. As to the method:
Solvent: 100 parts by weight of acetone
Subsequently, the plates are sealed with parafilm, which a mixed population of green peach aphids (Myzus persicae) within a second microtitre plate is able to puncture and imbibe the solution through it.
After 5 days, the efficacy in % is determined. 100% means that all the aphids have been killed; 0% means that no aphids have been killed.

Setting [4] is: pH 2.7, HPLC, acidic range pH 2.7, 0.1% aqueous formic acid/acetonitrile, read-out: logp-acidic.
Setting [5] is: pH 7.8, HPLC, neutral range pH 7.8, 0.001 molar aqueous ammonium hydrogencarbonate/acetonitrile, read-out: logp-neutral.
Where [6] appears, read: HPLC, acidic range pH 2.7, 0.1% aqueous formic acid/acetonitrile.
The mark [7] stands for this setting: HPLC, neutral range pH 7.8, 0.001 molar aqueous ammonium hydrogencarbonate/acetonitrile.

With `CC(=O)OCc1cc(-c2ncc(C(=O)N(C)c3cccnc3)n2C)ccc1F` [Example 44], the logp-acidic in data set [1] (pH 2.7) stood at 1.39. Moreover, the logp-neutral in data set [1] (pH 7.8) was found to be 1.81. For the same compound, the “efficacy in % (aphids killed)” value with Myzus persicae [2] and in the data set with Myzus persicae [3] was 90% in each case.
In turn, `CN(C(=O)c1cnc(-c2cccc(COC(=O)C3CC3)c2)n1C)c1cccnc1` [Example 45] showed a logp-acidic in data set [1] (pH 2.7) of 1.28. In data set [1] (pH 7.8), the logp-neutral is recorded as 1.86. Besides, the “efficacy in % (aphids killed)” value in the data set with Myzus persicae [2] and in the data set with Myzus persicae [3] was 90% each time.
Turning to `CN(C(=O)c1cnc(-c2ccccn2)n1C)c1cccnc1` [Example 47], the chromatographic logP in data set [1] (setting [4]) was 0.74; in data set [1] (setting [5]), 1.16. Further, in the data set with Myzus persicae [2], the pest or weed control at 500 g/ha amounted to 90%. In addition, the pest or weed control at 20 ppm in the data set with Myzus persicae [3] came out at 100%.
On to `CN(C(=O)c1cnc(-c2cccc(C(F)F)c2)n1C)c1cccnc1` [Example 48], for which the logp-acidic in data set [1] (pH 2.7) is 1.22. For the same compound, in data set [1] (pH 7.8), the logp-neutral amounted to 1.65. Further, the “efficacy in % (aphids killed)” value with Myzus persicae [2] and with Myzus persicae [3] was 100% throughout.
Take `CN(C(=O)c1cnc(-c2cc(C(F)(F)F)cc(C(F)(F)F)c2)n1C)c1cccnc1` [Example 53]: the logp-acidic in data set [1] (pH 2.7) is 2.43. In addition, in data set [1] (pH 7.8), the logp-neutral is given as 2.63. Besides, the “efficacy in % (aphids killed)” value came out at 90% in the data set with Myzus persicae [2] and 100% in the data set on Myzus persicae [3].
The matching figures for `CN(C(=O)c1cnc(-c2cc(F)cc(C(F)(F)F)c2)n1C)c1cccnc1` [Example 54]: 1.90, 2.14, 90% and 100%.
As to `CN(C(=O)c1cnc(-c2ccc(C#N)c(C(F)(F)F)c2)n1C)c1cccnc1` [Example 55], the figures for the chromatographic logP in data set [1] (setting [4]) and in data set [1] (setting [5]) were 1.72 and 1.92, respectively. Also, the pest or weed control at 500 g/ha in the data set with Myzus persicae [2] came out at 90%. In addition, in the data set with Myzus persicae [3], the pest or weed control at 20 ppm was 100%.
Consider `CN(C(=O)c1cnc(-c2cccc(CC(F)(F)F)c2)n1C)c1cccnc1` [Example 56], for which, in data set [1] (pH 7.8), the logp-neutral was 1.96. Further, the figures for the “efficacy in % (aphids killed)” value in the data set with Myzus persicae [2] and in the data set with Myzus persicae [3] were 90% and 100%, respectively.
With `CN(C(=O)c1cnc(-c2cccc(C#N)c2)n1C)c1cccnc1` [Example 58], in data set [1] (setting [6]), the logp-acidic was found to be 0.91. The compound also had a logp-neutral in data set [1] (setting [7]) of 1.33. Also, the “efficacy in % (aphids killed)” value in the data set on Myzus persicae [2] and in the data set on Myzus persicae [3] was 100% throughout.
As to `CN(C(=O)c1cnc(-c2ccc(Cl)c(C#N)c2)n1C)c1cccnc1` [Example 59], the logp-acidic in data set [1] (setting [6]) is recorded as 1.42. In data set [1] (setting [7]), this compound registered a logp-neutral of 1.69. For the same compound, the “efficacy in % (aphids killed)” value in the data set with Myzus persicae [2] is recorded as 90%; in the data set with Myzus persicae [3] it was 100%.
`CN(C(=O)c1cnc(-c2cc(F)cc(C#N)c2)n1C)c1cccnc1` [Example 60] returned a logp-acidic in data set [1] (pH 2.7) of 1.21. In data set [1] (pH 7.8), this compound gave a logp-neutral of 1.52. In addition, the results for the “efficacy in % (aphids killed)” value in the data set on Myzus persicae [2] and in the data set with Myzus persicae [3] were 90% and 100%, respectively.
Turning to `CN(C(=O)c1cnc(-c2cc(C#N)cc(C(F)(F)F)c2)n1C)c1cccnc1` [Example 61], in data set [1] (setting [6]), the logp-acidic came to 1.85. This compound also displayed a logp-neutral in data set [1] (setting [7]) of 1.96. In addition, the “efficacy in % (aphids killed)” value in the data set with Myzus persicae [2] and in the data set with Myzus persicae [3] was 100% throughout.
Compound `COc1ccc(C#N)cc1-c1ncc(C(=O)N(C)c2cccnc2)n1C` [Example 62] yielded a logp-acidic in data set [1] (setting [6]) of 0.78. Also, in data set [1] (setting [7]), the logp-neutral came out at 1.37. Moreover, the “efficacy in % (aphids killed)” value with Myzus persicae [2] and in the data set with Myzus persicae [3] was 100% each time.
In data set [1] (setting [6]), `CN(C(=O)c1cnc(-c2ccc(F)c(C#N)c2)n1C)c1cccnc1` [Example 63] displayed a logp-acidic of 1.15. Also, in data set [1] (setting [7]), the logp-neutral is listed as 1.52. For the same compound, the “efficacy in % (aphids killed)” value in the data set with Myzus persicae [2] turned out to be 90%; in the data set with Myzus persicae [3], 100%.
Regarding `CN(C(=O)c1cnc(-c2cnc(N3CCOCC3)c(C#N)c2)n1C)c1cccnc1` [Example 66], the logp-acidic in data set [1] (pH 2.7) is recorded as 1.16. The logp-neutral in data set [1] (pH 7.8) came out at 1.45. In addition, the “efficacy in % (aphids killed)” value with Myzus persicae [2] came out at 90%; in the data set with Myzus persicae [3], 100%.
The matching figures for `CCOc1ncc(-c2ncc(C(=O)N(C)c3cccnc3)n2C)cc1C#N` [Example 67]: 1.50, 1.73, 100% and 100%.
Take `CN(C(=O)c1cnc(-c2cc(Cl)cc(C#N)c2)n1C)c1cccnc1` [Example 69]: the logp-acidic in data set [1] (setting [6]) is on record as 1.52. Further, the logp-neutral in data set [1] (setting [7]) worked out at 1.74. In addition, the “efficacy in % (aphids killed)” value with Myzus persicae [2] and in the data set on Myzus persicae [3] was 100% throughout.
As to `CN(C(=O)c1cnc(-c2cc(-c3ccccc3)no2)n1C)c1cccnc1` [Example 71], the chromatographic logP is 1.9 in data set [1] (setting [4]) and 2.37 in data set [1] (setting [5]). For the same compound, the pest or weed control at 500 g/ha in the data set on Myzus persicae [2] is 100%. The pest or weed control at 20 ppm in the data set on Myzus persicae [3] amounted to 100%.
In the case of `CC(C)n1cc(-c2ncc(C(=O)N(C)c3cccnc3)n2C)nn1` [Example 73], in data set [1] (pH 2.7), the logp-acidic is given as 0.88. The same compound came in with a logp-neutral in data set [1] (pH 7.8) of 1.24. Moreover, the “efficacy in % (aphids killed)” value in the data set with Myzus persicae [2] and with Myzus persicae [3] was 100% throughout.
Turning to `CN(C(=O)c1cnc(-c2cn(C)nn2)n1C)c1cccnc1` [Example 74], the chromatographic logP stood at 0.27 in data set [1] (setting [4]) and 0.76 in data set [1] (setting [5]). The pest or weed control at 500 g/ha in the data set on Myzus persicae [2] was determined as 100%. The pest or weed control at 20 ppm in the data set with Myzus persicae [3] stood at 100%.
On to `CCN(C(=O)c1cnc(-c2cnc(OC)c(C#N)c2)n1C)c1cccnc1` [Example 75], for which the chromatographic logP in data set [1] (setting [4]) stood at 1.46; in data set [1] (setting [5]) it was 1.65. In addition, the pest or weed control at 500 g/ha in the data set with Myzus persicae [2] was 100%. Moreover, in the data set with Myzus persicae [3], the pest or weed control at 20 ppm turned out to be 100%.
Take `CCOc1ncc(-c2ncc(C(=O)N(CC)c3cccnc3)n2C)cc1C#N` [Example 76]: the logp-acidic in data set [1] (pH 2.7) was 1.69. The same compound yielded a logp-neutral in data set [1] (pH 7.8) of 1.95. Further, the “efficacy in % (aphids killed)” value was determined as 90% in the data set with Myzus persicae [2] and 100% with Myzus persicae [3].
Compound `CN(C(=O)c1cnc(-c2cccc3c2OCC3)n1C)c1cccnc1` [Example 79] returned a logp-acidic in data set [1] (pH 2.7) of 0.7. Also, the “efficacy in % (aphids killed)” value in the data set on Myzus persicae [2] and in the data set on Myzus persicae [3] was 100% in each case.
The compound `CN(C(=O)c1cnc(-c2cccc3ccoc23)n1C)c1cccnc1` [Example 80] displayed a logp-acidic in data set [1] (pH 2.7) of 0.97. The compound also registered a logp-neutral in data set [1] (pH 7.8) of 1.62. The “efficacy in % (aphids killed)” value in the data set with Myzus persicae [2] and in the data set with Myzus persicae [3] was 100% in each case.
Regarding `COc1ccccc1-c1ncc(C(=O)N(C)c2cccnc2)n1C` [Example 82], in data set [1] (pH 2.7), the logp-acidic was found to be 0.65. Further, in data set [1] (pH 7.8), the logp-neutral was 1.45. The “efficacy in % (aphids killed)” value with Myzus persicae [2] and in the data set with Myzus persicae [3] was 100% in each case.
In data set [1] (pH 2.7), `COc1ccc(-c2ncc(C(=O)N(C)c3cccnc3)n2C)c(OC)c1` [Example 84] registered a logp-acidic of 0.8. The same compound returned a logp-neutral in data set [1] (pH 7.8) of 1.54. Moreover, the “efficacy in % (aphids killed)” value in the data set with Myzus persicae [2] and in the data set with Myzus persicae [3] was 100% each time.
`CN(C(=O)c1cnc(-c2cccc(C(F)(F)F)n2)n1C)c1cccnc1` [Example 86]: the logp-acidic in data set [1] (pH 2.7) came to 1.91. The logp-neutral in data set [1] (pH 7.8) came out at 2.04. The “efficacy in % (aphids killed)” value with Myzus persicae [2] worked out at 90%; in the data set on Myzus persicae [3], 100%.
`COc1ncccc1-c1ncc(C(=O)N(C)c2cccnc2)n1C` [Example 88] displayed a logp-acidic in data set [1] (pH 2.7) of 0.53. The compound also yielded a logp-neutral in data set [1] (pH 7.8) of 1.16. For the same compound, the “efficacy in % (aphids killed)” value in the data set with Myzus persicae [2] is given as 90%; in the data set with Myzus persicae [3] it was 100%.
The matching figures for `CCOc1ccc(-c2ncc(C(=O)N(C)c3cccnc3)n2C)cn1` [Example 89]: 0.93, 1.53, 90% and 100%.
`COc1ncc(-c2ncc(C(=O)N(C)c3cccnc3)n2C)cc1Cl` [Example 90] displayed a logp-acidic in data set [1] (pH 2.7) of 1.28. This compound displayed a logp-neutral in data set [1] (pH 7.8) of 1.68. Further, the “efficacy in % (aphids killed)” value was 90% with Myzus persicae [2] and 100% with Myzus persicae [3].
In the case of `CSc1ncccc1-c1ncc(C(=O)N(C)c2cccnc2)n1C` [Example 91], the logp-acidic in data set [1] (pH 2.7) was determined as 0.93. For the same compound, the logp-neutral in data set [1] (pH 7.8) was determined as 1.33. For the same compound, the “efficacy in % (aphids killed)” value in the data set with Myzus persicae [2] stood at 90%; in the data set with Myzus persicae [3], 100%.
